Results from US20250051314A1, “SMALL MOLECULE INHIBITORS OF INTERFERON GAMMA SIGNALING” (INSTITUT CURIE, priority 2021, published 2025).

Columns and labels:
Format in all cases: cell-based
[1] = system: formin-mediated actin assembly; experiment: In cellulo actin nucleation assay (phalloidin staining, cell area); settings: Hela cells, 40 μM, 20 min
Description: Hela cells grown on coverslips were treated with DMEM containing 0.2% BSA and the compounds (40 μM) for 20 min at 37° C., washed with cold PBS (two times) and then fixed with 4% paraformaldehyde for 30 min at room temperature, quenched in 50 mM NH4Cl for 10 min and permeabilized with 0.05% saponin in 0.2% BSA in PBS for 20 min. Cells were incubated with 165 nM phalloidin for 1 h at room temperature. DAPI containing fluoromount-G was used to mount coverslips onto glass slide. Cell areas were measured with ImageJ software (NIH).

[2] = system: IFNγ-induced tyrosine phosphorylation of STAT1 (pSTAT1); experiment: JAK/STAT signalling activation assay (pSTAT1/tSTAT1 immunoblot); settings: Hela cells; for inhibition of IFNγ-induced pSTAT1 (IFNγ-signaling), result in words: screening at 40 μM; for inhibition of IFNγ-induced pSTAT1 (IFNγ-signaling), result in words / inhibition of phosphorylation of STAT, dose-response in words: 20 min pre-incubation with IFNγ; for inhibition of phosphorylation of STAT, dose-response in words: different concentrations; for IC50: Homo sapiens, 1000 U/ml IFNγ pre-incubated 20 min with compound, non-linear curve fit, n=3, read-out: IC50 pSTAT1 inhibition
Description: Cell culture: Hela cells were grown at 37° C. under 5% CO2 in DMEM high glucose Glutamax (Gibco, Life Technologies) complemented with 10% FBS (v/v) (Gibco, Life Technologies) and supplemented with 5 mM pyruvate (v/v) (Gibco, Life Technologies) and 1% penicillin-streptomycin (v/v) (Gibco, Life Technologies). Primary antibodies: Mouse anti-phospho-STAT1 Tyr701 (BD Transduction Laboratories, 612132, RRID: AB_399503, 1:1000 for western blot), rabbit anti-STAT1 (Cell Signaling, 9172, RRID: AB_2198300, 1:1000 for western blot), mouse anti-alpha-tubulin (Sigma, clone B512, T5168, RRID: AB_86546, 1:5000 for western blot); rabbit anti-IFN-γ ([Abcam, EPR1108, ab133566, 1:1000 for western blot). Secondary antibodies anti-mouse-Alexa488 (Invitrogen, A21202), anti-mouse-HRP (Jackson ImmunoResearch, 715-035-151) and anti-rabbit-HRP (Jackson ImmunoResearch, […]) were used at 1:5000 for western blot.
20 mM stock solution of compounds in DMSO were prepared and stored at −20° C.
Hela cells were treated 20 min at 37° C. with mixture containing 1000 U·ml^−1 IFNγ in DMEM with 0.2% BSA preincubated for 20 min at 37° C. with DMSO (as control) for JAK/STAT stimulation. For screening compounds, 40 μM compounds were pre-incubated with 1000 U·ml^−1 of IFNγ in DMEM containing 0.2% BSA for 20 min at 37° C. before adding it to Hela cells. 10-fold 7 or 5 serial dilutions from 400 μM of compounds were made in DMEM containing 1000 U·ml^−1 of IFNγ and 0.2% BSA, and incubated for 20 min before stimulating JAK/STAT for finding IC50 towards IFNγ.
Cells were lysed in sample buffer (62.5 mM Tris/HCl, […], 2% v/v SDS, 10% glycerol v/v, 40 mM dithiothreitol, and 0.03% w/v phenol red). Samples were analysed by SDS-PAGE on 4-15% Mini-PROTEAN* TGX™ Precast Gels or on 4-15% Mini-PROTEAN′ TGX™ Stain Free Gel (Bio-Rad) and immuno-blotted with the indicated primary antibodies and horseradish peroxidase- or Alexa488-conjugated secondary antibodies. […] Acquisition and quantification were performed with the ChemiDoc MP Imaging System (Bio-Rad). Phosphorylated protein over total protein ratio was determined on the same blot using horseradish peroxidase and Alexa488 signals.

Hela cells = experiment: Cell viability assay (CellTiter-Blue); settings: Hela cells treated for 24 h; for IC50: Homo sapiens, n=3
Description: Cell viability assay was carried out by plating 10,000 cells/well in 96-well plates. 3-Fold 8 serial dilutions of the compounds from 3 mM were made in DMEM. HeLa cells were treated for 24 h with the compounds of different concentrations made. In case of preincubation with IFNγ, 6000 U·ml^−1 of IFNγ per concentration of compounds were used and incubated for 20 min. According to manufacturer's protocol,
CellTiter-Blue® reagent was added after 24 h treatment and cells were incubated for 3 h before recording fluorescence intensities (λex. 560/20 nm; λem. 590/10 nm) using a Perkin Elmer Wallac 1420 Victor2 Microplate Reader.

Row | Structure (SMILES) | formin targeting / actin assembly (phalloidin pattern, cell area), result in words [1] | inhibition of IFNγ-induced pSTAT1 (IFNγ-signaling), result in words [2] | inhibition of phosphorylation of STAT, dose-response in words [2] | IC50 [2] [µM] | cytotoxicity at effective doses (Hela cells) | IC50 (Hela cells) [µM]
1 | Cc1ccc(C=C2C(=O)NC(=S)N(c3cccc(F)c3)C2=O)o1 [Compound 6a, 1-(3-fluorophenyl)-5-((5-methylfuran-2-yl)methylene)-2-thioxodihydropyrimidine-4,6(1H,5H)-dione] | inhibited either IFNγ-signaling or formins |  |  |  |  | 
2 | O=C1NC(=S)N(c2cccc(Br)c2)C(=O)C1=Cc1ccco1 [SMIFH2, 1-(3-Bromophenyl)-5-(2-furylmethylene)-2-thioxo-hexahydropyrimidine-4,6-dione, reference compound] |  | capable of inhibiting IFNγ signaling |  |  |  | 
3 | C#Cc1ccc(C=C2C(=O)N(c3cccc(F)c3)C(=S)N(c3cccc(F)c3)C2=O)o1 [Compound 5k, 5-((5-ethynylfuran-2-yl)methylene)-1,3-bis(3-fluorophenyl)-2-thioxodihydropyrimidine-4,6(1H,5H)-dione] |  |  | dose-dependent manner in the low micromolar range | 5.97 | did not show significant cytotoxicity at effective doses | 95
4 | C#Cc1ccc(C=C2C(=O)NC(=S)N(c3cccc(Br)c3)C2=O)o1 [Compound 5a, (1-(3-bromophenyl)-5-((5-ethynylfuran-2-yl)methylene)-2-thioxodihydropyrimidine-4,6(1H,5H)-dione)] | deprived of formin targeting | inhibited IFNγ-induced pSTAT1 | dose-dependent manner in the low micromolar range | 1.08 | did not show significant cytotoxicity at effective doses | 331
5 | C#Cc1ccc(C=C2C(=O)NC(=S)N(c3cccc(F)c3)C2=O)o1 [Compound 5b, 5-((5-ethynylfuran-2-yl)methylene)-1-(3-fluorophenyl)-2-thioxodihydropyrimidine-4,6(1H,5H)-dione] |  |  | dose-dependent manner in the low micromolar range | 1.05 | did not show significant cytotoxicity at effective doses | 95
6 | C#Cc1ccc(C=C2C(=O)N(c3cccc(Br)c3)C(=S)N(c3cccc(Br)c3)C2=O)o1 [Compound 5j, 1,3-bis(3-bromophenyl)-5-((5-ethynylfuran-2-yl)methylene)-2-thioxodihydropyrimidine-4,6(1H,5H)-dione] |  | biologically active compounds | dose-dependent manner in the low micromolar range | 4.63 | did not show significant cytotoxicity at effective doses | 308
7 | O=C1NC(=O)N(c2cccc(Br)c2)C(=O)C1=Cc1ccco1 [Compound 6l, 1-(3-bromophenyl)-5-(furan-2-ylmethylene)pyrimidine-2,4,6(1H,3H,5H)-trione] |  | did not show IFNγ-signaling inhibitory activity |  |  |  | 
8 | O=C1NC(=S)N(c2cccc(F)c2)C(=O)C1=Cc1ccc(Br)o1 [Compound 6i, 5-((5-bromofuran-2-yl)methylene)-1-(3-fluorophenyl)-2-thioxodihydropyrimidine-4,6(1H,5H)-dione] | inhibited either IFNγ-signaling or formins |  |  |  |  | 
9 | C#Cc1ccc(C=C2C(=O)NC(=O)N(c3cccc(Br)c3)C2=O)o1 [Compound 5l, 1-(3-bromophenyl)-5-((5-ethynylfuran-2-yl)methylene)pyrimidine-2,4,6(1H,3H,5H)-trione] | retained its activity against both IFNγ-signaling and formin | retained its activity against both IFNγ-signaling and formin |  |  |  | 
10 | O=C1NC(=S)N(c2cccc(F)c2)C(=O)C1=Cc1ccc(Cl)o1 [Compound 6b, 5-((5-chlorofuran-2-yl)methylene)-1-(3-fluorophenyl)-2-thioxodihydropyrimidine-4,6(1H,5H)-dione] |  | inhibited either IFNγ-signaling or formins |  |  |  | 
